Active and inactive are the calls of the source.
Legend:
[1] = target: Voltage-dependent T-type calcium channel subunit alpha-1H (Homo sapiens, UniProt O95180); assay type: functional;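 note: channel activity triggered by adding a high calcium stimulation buffer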
[2] = target: T1, RNA-binding protein pos-1 (Caenorhabditis elegans, UniProt G5EF15); test: inhibitors of POS-1/mex-3 RNA binding, dose response, biochemical, fluorescence polarization (AID 1964);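 note: purified POS-1 fused to maltose binding protein made in E. coli; potency of compounds blocking POS-1 binding to fluorescent RNA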
T1 sequence (G5EF15 whole entry): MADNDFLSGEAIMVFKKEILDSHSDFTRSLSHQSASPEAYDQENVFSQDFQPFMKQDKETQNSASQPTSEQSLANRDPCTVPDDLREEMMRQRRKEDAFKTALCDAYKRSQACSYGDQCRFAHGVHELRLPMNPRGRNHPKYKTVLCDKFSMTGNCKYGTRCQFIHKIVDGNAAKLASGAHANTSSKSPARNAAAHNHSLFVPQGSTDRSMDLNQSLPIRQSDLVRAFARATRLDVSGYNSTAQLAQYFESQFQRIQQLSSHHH

[3] = Luminescence Cell-Based Dose Confirmation HTS to Identify Activators of 5'UTR Stem-Loop Driven Alpha-Synuclein mRNA Translation in H4 Neuroglioblastoma Cells. [Related pubchem assays: 1829 (Project Summary), 1814 (Primary HTS)]; assay type: functional
[4] = Luminescence Cell-Based Dose Response HTS to Identify Activators of Luciferase Translation or Activity in H4 […] Cells. [Related pubchem assays: 1829 (Project Summary), 1814 (Primary HTS)]; assay type: functional
H4 = test: Luminescence Cell-Based Dose Response HTS to Identify Activators of 5'UTR Stem-Loop Driven Prion Protein mRNA Translation in H4 Neuroglioblastoma Cells. [Related pubchem assays: 1829 (Project Summary), 1814 (Primary HTS)]; assay type: functional; settings: Homo sapiens
[5] = target: T2, Zinc finger protein mex-5 (Caenorhabditis elegans, UniProt Q9XUB2); test: MEX-5/TCR-2 RNA interaction inhibitors, dose response, biochemical, C. elegans, fluorescence polarization (AID 1960)
T2 sequence (Q9XUB2 whole entry): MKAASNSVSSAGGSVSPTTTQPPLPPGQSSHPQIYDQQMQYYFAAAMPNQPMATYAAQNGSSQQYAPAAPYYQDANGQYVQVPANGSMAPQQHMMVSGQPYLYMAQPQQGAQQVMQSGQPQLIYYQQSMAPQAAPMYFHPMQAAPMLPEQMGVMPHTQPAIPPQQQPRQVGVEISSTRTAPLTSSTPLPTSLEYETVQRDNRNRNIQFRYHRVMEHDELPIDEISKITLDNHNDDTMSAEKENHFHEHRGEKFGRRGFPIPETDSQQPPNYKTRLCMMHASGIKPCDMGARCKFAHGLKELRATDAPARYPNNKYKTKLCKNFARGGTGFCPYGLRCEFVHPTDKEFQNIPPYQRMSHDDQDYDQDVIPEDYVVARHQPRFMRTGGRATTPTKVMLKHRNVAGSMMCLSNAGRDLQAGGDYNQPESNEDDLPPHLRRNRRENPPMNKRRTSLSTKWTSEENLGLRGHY

[6] = target: T3, Endoribonuclease toxin MazF (Escherichia coli K-12, UniProt P0AE70); test: MazF toxin RNase activators, dose response, biochemical, fluorescence, single-stranded RNA substrate, uHTS hits (AID 588481); assay type: functional
T3 sequence (P0AE70 whole entry): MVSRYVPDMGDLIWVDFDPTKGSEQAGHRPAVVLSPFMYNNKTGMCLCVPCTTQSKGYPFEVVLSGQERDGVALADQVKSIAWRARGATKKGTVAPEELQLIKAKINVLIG

[7] = target: T3, Endoribonuclease toxin MazF; test: fluorescent RNA oligo signal without MazF, dose response, counter-screen for MazEF activator project, biochemical, fluorescence, single-stranded RNase substrate (AID 588502); assay type: functional
[8] = inhibitors of intracellular T. cruzi replication, confirmation, NIH3T3 host cells, beta-gal luminescence (AID 2044); assay type: functional, cell-based;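 note: intracellular parasites grown in NIH/3T3 mouse fibroblasts as host cells; luminescent beta-galactosidase reporter signal from transgenic T. cruzi replicating inside host cells; inhibitors lower the luminescence signal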
[9] = cytotoxicity toward NIH3T3 fibroblasts, dose response, counter-screen, cell-based, ATP luminescence, mouse fibroblasts (AID 2010); assay type: functional;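 note: cells exposed to compound for about 90 hours before reading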
cells [10] = test: cells
Cytochrome P450 2D6 = Cytochrome P450 2D6 (Homo sapiens, UniProt P10635);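 note: CYP2D6 member of a cytochrome P450 panel assay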
Cytochrome P450 2C9 = Cytochrome P450 2C9 (Homo sapiens, UniProt P11712)
Aminopeptidase N = target: T4, Aminopeptidase N (Plasmodium falciparum FcB1/Columbia, UniProt O96935); test: P. falciparum M1AAP inhibitors, biochemical, fluorogenic H-Leu-NHMec substrate, 1536-well (AID 1445); parameters: species or system Plasmodium falciparum 3D7, 3D7
T4 sequence (O96935 whole entry): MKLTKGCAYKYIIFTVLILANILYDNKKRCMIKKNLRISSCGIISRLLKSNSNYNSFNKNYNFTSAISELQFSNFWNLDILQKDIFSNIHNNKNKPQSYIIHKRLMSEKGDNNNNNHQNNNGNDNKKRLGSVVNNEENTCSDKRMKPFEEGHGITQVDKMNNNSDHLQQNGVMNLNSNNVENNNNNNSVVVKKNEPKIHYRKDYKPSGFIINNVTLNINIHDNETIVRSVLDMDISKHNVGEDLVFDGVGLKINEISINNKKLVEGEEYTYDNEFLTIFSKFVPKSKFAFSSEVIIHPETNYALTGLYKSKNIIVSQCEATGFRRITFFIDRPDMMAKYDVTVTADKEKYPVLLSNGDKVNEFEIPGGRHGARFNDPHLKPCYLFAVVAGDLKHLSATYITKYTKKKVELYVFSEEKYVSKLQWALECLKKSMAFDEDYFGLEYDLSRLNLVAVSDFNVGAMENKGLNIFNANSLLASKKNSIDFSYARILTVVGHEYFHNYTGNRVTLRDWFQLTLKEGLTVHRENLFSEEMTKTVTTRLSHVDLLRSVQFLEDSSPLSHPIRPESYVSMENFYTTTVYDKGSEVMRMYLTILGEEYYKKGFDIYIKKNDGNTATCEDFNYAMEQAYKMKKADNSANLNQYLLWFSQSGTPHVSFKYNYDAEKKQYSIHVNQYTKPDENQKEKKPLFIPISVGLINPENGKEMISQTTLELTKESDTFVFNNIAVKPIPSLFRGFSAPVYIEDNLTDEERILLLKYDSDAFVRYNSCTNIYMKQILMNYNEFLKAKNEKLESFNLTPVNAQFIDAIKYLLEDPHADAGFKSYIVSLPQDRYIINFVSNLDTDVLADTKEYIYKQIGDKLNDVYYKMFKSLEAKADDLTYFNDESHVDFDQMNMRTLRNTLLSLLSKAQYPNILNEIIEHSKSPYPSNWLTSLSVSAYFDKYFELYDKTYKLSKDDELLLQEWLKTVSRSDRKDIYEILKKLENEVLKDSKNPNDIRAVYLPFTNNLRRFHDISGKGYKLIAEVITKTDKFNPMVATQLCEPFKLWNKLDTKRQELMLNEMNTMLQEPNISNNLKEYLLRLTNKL

cells [11] = assay type: functional
[12] = NIH-3T3 fibroblast cytotoxicity, dose response, cytotoxicity control, cell-based, fluorescence, Alamar Blue, secondary assay (AID 2327); assay type: functional;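 note: NIH-3T3 mouse fibroblasts cultured with fluconazole at 8 µg/mL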
cells [13] = assay type: functional, cell-based
[14] = A Cell Based Secondary Assay To Explore Cytotoxicity of Compounds that Sensitize Mycobacterium Tuberculosis to Beta-Lactam Antibiotics.; assay type: functional
[15] = C. albicans growth with fluconazole, confirmation, fluorescence, retest (AID 2467); assay type: functional, cell-based
cells [16] = assay type: functional, cell-based; remark: listed apart in the source
[17] = target: T5, Microphthalmia-associated transcription factor (Homo sapiens, UniProt O75030); test: TRPM1 promoter luciferase signal decrease, dose response, MITF inhibitor project, cell-based, SK-MEL-5, cherry-picked, set 3 (AID 493073); assay type: functional
T5 sequence (O75030 whole entry): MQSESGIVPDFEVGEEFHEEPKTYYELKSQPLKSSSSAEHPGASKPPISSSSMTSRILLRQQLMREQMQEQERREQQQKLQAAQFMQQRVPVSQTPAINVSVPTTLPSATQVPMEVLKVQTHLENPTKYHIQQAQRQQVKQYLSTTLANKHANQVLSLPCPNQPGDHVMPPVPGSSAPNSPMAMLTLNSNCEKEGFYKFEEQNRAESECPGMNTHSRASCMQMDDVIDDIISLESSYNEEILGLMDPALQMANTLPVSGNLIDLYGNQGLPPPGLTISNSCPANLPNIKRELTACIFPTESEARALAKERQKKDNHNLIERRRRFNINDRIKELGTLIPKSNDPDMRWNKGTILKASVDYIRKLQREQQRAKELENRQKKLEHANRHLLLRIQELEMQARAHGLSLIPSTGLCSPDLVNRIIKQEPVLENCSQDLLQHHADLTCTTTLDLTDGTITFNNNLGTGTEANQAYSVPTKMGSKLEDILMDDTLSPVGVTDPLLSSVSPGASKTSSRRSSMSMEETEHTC

Voltage-dependent T-type calcium channel subunit alpha-1H, sequence (O95180 whole entry, the tested form may be a part): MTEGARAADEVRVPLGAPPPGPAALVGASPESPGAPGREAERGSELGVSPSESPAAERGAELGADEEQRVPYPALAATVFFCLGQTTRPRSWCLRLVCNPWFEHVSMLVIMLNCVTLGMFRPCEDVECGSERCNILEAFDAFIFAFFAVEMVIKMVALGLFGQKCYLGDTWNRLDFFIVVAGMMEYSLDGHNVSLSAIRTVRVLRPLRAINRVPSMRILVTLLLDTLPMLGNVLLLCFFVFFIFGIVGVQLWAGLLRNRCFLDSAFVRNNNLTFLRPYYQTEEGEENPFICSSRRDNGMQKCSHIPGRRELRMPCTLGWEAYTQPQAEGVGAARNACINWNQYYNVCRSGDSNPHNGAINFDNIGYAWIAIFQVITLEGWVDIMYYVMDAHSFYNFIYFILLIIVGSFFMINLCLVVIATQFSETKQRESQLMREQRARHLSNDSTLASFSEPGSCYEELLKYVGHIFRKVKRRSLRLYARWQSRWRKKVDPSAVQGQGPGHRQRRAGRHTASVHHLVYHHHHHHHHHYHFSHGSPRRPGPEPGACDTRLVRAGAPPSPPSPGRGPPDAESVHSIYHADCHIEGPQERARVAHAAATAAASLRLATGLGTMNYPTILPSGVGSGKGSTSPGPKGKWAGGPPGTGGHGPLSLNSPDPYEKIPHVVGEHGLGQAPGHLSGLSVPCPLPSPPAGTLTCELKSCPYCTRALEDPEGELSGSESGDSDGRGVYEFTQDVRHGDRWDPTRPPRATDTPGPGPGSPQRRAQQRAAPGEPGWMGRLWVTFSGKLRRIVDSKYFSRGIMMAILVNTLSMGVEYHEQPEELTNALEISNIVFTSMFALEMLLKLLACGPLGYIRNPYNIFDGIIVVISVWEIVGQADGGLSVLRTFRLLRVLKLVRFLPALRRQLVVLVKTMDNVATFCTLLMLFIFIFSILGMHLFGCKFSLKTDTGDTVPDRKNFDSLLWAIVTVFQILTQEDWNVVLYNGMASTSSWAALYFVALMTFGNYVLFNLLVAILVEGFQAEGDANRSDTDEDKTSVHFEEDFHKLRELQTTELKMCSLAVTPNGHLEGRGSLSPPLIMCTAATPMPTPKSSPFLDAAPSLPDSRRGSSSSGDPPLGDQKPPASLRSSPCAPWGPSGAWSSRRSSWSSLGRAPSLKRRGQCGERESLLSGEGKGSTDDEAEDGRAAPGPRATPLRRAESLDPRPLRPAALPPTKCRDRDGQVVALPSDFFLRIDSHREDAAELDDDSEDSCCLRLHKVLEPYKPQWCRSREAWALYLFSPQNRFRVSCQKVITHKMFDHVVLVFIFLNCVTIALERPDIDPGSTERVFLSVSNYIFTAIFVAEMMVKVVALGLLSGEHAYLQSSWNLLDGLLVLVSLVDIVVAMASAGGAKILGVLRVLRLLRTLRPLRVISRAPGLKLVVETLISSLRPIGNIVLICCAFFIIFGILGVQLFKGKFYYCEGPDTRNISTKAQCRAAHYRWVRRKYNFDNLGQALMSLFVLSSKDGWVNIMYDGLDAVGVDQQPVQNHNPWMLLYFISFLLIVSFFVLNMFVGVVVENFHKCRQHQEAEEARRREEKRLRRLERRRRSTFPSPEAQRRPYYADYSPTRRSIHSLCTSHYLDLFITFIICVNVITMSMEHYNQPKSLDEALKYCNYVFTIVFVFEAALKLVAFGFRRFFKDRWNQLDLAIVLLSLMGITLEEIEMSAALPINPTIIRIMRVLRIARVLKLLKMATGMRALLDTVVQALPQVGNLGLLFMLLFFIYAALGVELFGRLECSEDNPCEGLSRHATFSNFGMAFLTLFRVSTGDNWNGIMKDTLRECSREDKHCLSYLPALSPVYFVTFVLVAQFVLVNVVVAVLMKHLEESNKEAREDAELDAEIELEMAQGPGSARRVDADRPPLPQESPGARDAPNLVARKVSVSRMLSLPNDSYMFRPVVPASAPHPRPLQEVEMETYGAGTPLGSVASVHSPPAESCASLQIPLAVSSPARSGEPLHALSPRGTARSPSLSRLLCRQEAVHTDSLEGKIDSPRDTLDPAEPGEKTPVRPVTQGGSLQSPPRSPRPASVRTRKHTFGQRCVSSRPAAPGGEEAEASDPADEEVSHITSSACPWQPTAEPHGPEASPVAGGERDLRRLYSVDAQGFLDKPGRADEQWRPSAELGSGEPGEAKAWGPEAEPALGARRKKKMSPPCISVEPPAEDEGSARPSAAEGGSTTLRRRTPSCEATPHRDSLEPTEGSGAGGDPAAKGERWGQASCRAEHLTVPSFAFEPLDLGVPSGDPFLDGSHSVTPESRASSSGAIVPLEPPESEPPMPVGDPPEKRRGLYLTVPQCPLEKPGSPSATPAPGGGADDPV
Cytochrome P450 2C9, sequence (P11712 whole entry): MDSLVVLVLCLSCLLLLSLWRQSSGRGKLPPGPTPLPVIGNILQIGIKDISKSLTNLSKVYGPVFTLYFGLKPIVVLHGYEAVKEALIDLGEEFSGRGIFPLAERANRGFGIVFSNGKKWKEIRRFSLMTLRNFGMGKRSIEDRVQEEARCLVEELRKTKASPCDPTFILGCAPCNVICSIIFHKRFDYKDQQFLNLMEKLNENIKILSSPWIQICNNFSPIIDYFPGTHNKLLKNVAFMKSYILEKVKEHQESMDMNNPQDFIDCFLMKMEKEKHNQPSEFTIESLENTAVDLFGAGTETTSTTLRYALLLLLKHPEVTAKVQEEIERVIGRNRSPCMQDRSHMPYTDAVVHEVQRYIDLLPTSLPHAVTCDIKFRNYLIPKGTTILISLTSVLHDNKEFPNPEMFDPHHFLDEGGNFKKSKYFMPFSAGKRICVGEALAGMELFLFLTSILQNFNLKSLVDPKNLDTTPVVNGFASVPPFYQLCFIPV
Cytochrome P450 2D6, sequence (P10635 whole entry): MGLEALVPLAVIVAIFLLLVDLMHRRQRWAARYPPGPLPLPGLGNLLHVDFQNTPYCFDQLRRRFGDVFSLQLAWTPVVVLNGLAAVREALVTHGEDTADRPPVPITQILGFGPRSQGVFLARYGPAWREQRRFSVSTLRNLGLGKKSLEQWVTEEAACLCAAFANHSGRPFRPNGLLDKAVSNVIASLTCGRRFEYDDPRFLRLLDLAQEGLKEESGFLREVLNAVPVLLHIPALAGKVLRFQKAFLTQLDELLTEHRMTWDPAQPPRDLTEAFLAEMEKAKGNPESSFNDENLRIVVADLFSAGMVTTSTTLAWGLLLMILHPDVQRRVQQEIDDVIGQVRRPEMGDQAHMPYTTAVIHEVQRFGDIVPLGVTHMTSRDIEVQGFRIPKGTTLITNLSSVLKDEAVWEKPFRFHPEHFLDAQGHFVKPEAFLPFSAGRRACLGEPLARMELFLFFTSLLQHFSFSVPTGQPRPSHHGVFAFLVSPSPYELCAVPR

## COc1ccccc1OCc1nc(Cc2ccc(Cl)cc2)no1
[1]
  EC50: 7.9 µM (active)

## CCN1C(=O)/C(=C2/C=Cc3ccccc3N2C)OC1=S
[2]
  EC50: 55.8 µM (active)
[3]
  EC50: 2.39 µM (active)
[4]
  EC50: 4.49 µM (active)
H4
  EC50: 39.4 µM (active)
[5]
  EC50: 3.94 µM (inconclusive)
[6]
  EC50: > 99 µM (inactive)
[7]
  EC50: > 99 µM (inactive)

## CC(C)Oc1cccc(C(=O)C2CCCN(Cc3ccc(Oc4ncccn4)cc3)C2)c1 (stereo not given)
[8]
  EC50: < 0.1 µM (active)
[9]
  EC50: > 60 µM (not active)
Cells [10]
  EC50: 0.081 µM (active)

## O=C(CCCn1cnc([N+](=O)[O-])n1)Nc1ccc(Cl)c(Cl)c1
[8]
  EC50: < 0.1 µM (active)
[9]
  EC50: > 60 µM (not active)
Cytochrome P450 2D6
  AC50: 15.8 µM (inconclusive)
Cytochrome P450 2C9
  AC50: 15.8 µM (inconclusive)
Cells [10]
  EC50: 0.054 µM (active)

## O=C(Cn1nnc2ccccc2c1=O)N[C@@H](Cc1c[nH]c2ccccc12)C(=O)O
Aminopeptidase N
  IC50: 71.6 µM (active)

## Cc1nn(-c2ccccc2)c(Cl)c1/C=C1\SC(=S)NC1=O
Aminopeptidase N
  IC50: 46.8 µM (active)

## Cc1ccc(-n2nnnc2-c2cnc(N3CCCC3)nc2C(F)(F)F)cc1
[1]
  EC50: 8.9 µM (active)

## CCOc1cccc(CN2CCCC(N3CCc4cc(OC)c(OC)cc4C3)C2)c1O (stereo not given)
[8]
  EC50: < 0.1 µM (active)
[9]
  EC50: > 60 µM (not active)
Cells [10]
  EC50: 0.084 µM (active)

## CCc1nnc(NS(=O)(=O)c2ccc(NC(=S)NC(=O)c3ccc(OC)cc3)cc2)s1
Aminopeptidase N
  IC50: 60.5 µM (active)

## CC1CCN(S(=O)(=O)c2ccc(NC(=O)Cc3ccccc3)cc2)CC1
[1]
  EC50: 5.25 µM (active)

## O=C(CCCc1c[nH]c2ccccc12)NCc1ccc2c(c1)OCO2
[1]
  EC50: 2.31 µM (active)

## Cc1ccc(-c2nn(C)c(=O)c3ccccc23)cc1CNC(=O)c1ccco1
Aminopeptidase N
  IC50: 21.1 µM (active)

## O=C(c1ccc([N+](=O)[O-])o1)N1CCc2ccccc2C1
[8]
  EC50: < 0.1 µM (active)
[9]
  EC50: > 60 µM (not active)
Cells [11]
  IC50: 0.45 µM (active)
Cells [10]
  EC50: 0.042 µM (active)

## Nc1nonc1C(=O)N/N=C/c1ccc(-c2ccc(Cl)c(C(=O)O)c2)o1
Aminopeptidase N
  IC50: 43.8 µM (active)

## O=C(CSCC(=O)Nc1ccccc1)N/N=C/c1c(O)ccc2ccccc12
[12]
  EC50: > 160 µM (inactive)
Cells [13]
  EC50: 9.25 µM (active)
[14]
  CC50: 6.22 µM (active)
[15]
  EC50: > 38 µM (not active)
Cells [16]
  EC50: > 350 µM (not active)
[17]
  AC50: 3.34 µM (active)
[6]
  EC50: > 99 µM (inactive)
[7]
  EC50: > 99 µM (inactive)

## Cc1ccc(CSc2nnc(SCC(=O)N/N=C/c3ccccc3OCC(=O)O)s2)cc1
Aminopeptidase N
  IC50: 30.6 µM (active)

From ChEMBL document CHEMBL1201862, “PubChem BioAssay data set” (2004)
